In US20220339214A1, “KIRIN FRUIT FERMENTATION AND METHODS FOR IMPROVING METABOLISM BY USING THE SAME” (TCI CO., LTD., priority 2021, published 2022):

Experiments:
[1] = test system: mouse myoblasts C2C12; assay: Proliferation of skeletal muscle cells (Click-iT Plus EdU, flow cytometry); type: cell-based; settings: 24 h
Source text: Experimental cell strain: mouse myoblasts C2C12 (hereinafter referred to as C2C12 cells) of the C2C12 cell strain (ATCC CRL-1772™) purchased from the American Type Culture Collection (ATCC®).
Culture medium: Dulbecco's modified Eagle's medium, purchased from Gibco, US, Gat.11965-092. 10% of fetal bovine serum (FBS), purchased from Gibco, US, Gat.10437-028. 1% of antibiotic, purchased from Gibco, US, Gat.15240-062.
Reagents: 10×DPBS buffer (purchased from Gibco, Gat 14200-075), trypan blue dead cell dye (purchased from Lonza, Cat 17-942E), trypsin-EDTA (purchased from Gibco, Cat. 15400-054), and cell proliferation Click-iT™ Plus EdU kit (Invitrogen; Cat. C10632).
First, 1×10^5 cells were inoculated into each well of a 6-well culture plate to culture at 37° C. for 24 h. The cultured cells were divided into three groups: an experimental group, a blank group, and a control group.
Blank group: only a culture medium was added to culture at 37° C. for 24 h.
Control group: 10% of PBS was added to culture at 37° C. for 24 h, which was used as a positive control group. […]
Next, the specific reagent EdU from the cell proliferation kit was added to culture for 2 h. […] Finally, the fluorescence signal of the to-be-tested cell solution in each well was measured by the flow cytometry (under 488 nm of excitation light and 530/30 nm of scattered light), and the quantity of cells was calculated. […]

[2] = test system: mouse myoblasts C2C12; assay: Activity of mitochondria in skeletal muscle cells affected by active substances (fluorescence picture); type: cell-based; settings: 100 nM, 24 h, compared with blank group
Description: The experimental medium was removed from the culture plate, and the culture plate was washed with 1 mL of 1×PBS for two times. […] was added into each well to react for 5 min in the dark. After the reaction was completed, a cell medium was added to stop the reaction. The cells and cell medium in each well were collected in a 1.5 mL centrifuge tube, and the centrifuge tube containing the cells and cell medium was centrifuged at 400×g for 5 min. After the centrifugation, a supernatant was removed. The cells were washed with 1×DPBS, and then the centrifuge tube containing the cells was centrifuged again at 400×g for 5 min. After the centrifugation again, a supernatant was removed from each centrifuge tube, and 100 μL of JC-1 dye was added into each centrifuge tube and left to stand for 15 min in the dark. After 15 min, each centrifuge tube was centrifuged at 400×g for 5 min. […] Finally, the fluorescence signal of the to-be-tested cell solution in each well was measured by the flow cytometry (excitation light: 488 nip and scattered light: 527 nm & 590 nm), and the membrane potential of mitochondria was calculated, to analyze the activity of mitochondria. […] Finally, a picture of the fluorescence signal of the to-be-tested cell solution was taken by a. camera to observe the activity of mitochondria.

## O[C@H]1[C@H](O)[C@@H](O)[C@H](O)[C@@H](O)[C@H]1O [TCI-GHU-01, myo-inositol]
[1]; 100 nM, vs blank group
  increase of quantity of skeletal muscle cells: 48.2%
[1]; TCI-GHU-01 100 nM, positive control 10%, blank group regarded as 100%
  quantity of skeletal muscle cells relative to the blank group: 148.2%
[2]
  activity of mitochondria in skeletal muscle cells (small light spots around the nuclei): higher than that of the blank group
